Source: paper PMC5571359, “Screening the Medicines for Malaria Venture Pathogen Box across Multiple Pathogens Reclassifies Starting Points for Open-Source Drug Discovery” (Antimicrobial Agents and Chemotherapy, 2017)
Read-outs that look alike come from different tables or passages of the source.

What was measured:
[1] = tested on: T. b. brucei 427 bloodstream trypanosomes; test: T. b. brucei resazurin viability assay; format: cell-based, Trypanosoma brucei brucei; details: Trypanosoma brucei
[2] = tested on: P. falciparum stage V gametocytes; details: cited from earlier work; for IC50 / PF stage V GAMS PBox IC50 µM: stage V gametocytes; for IC50: read-out: PF stage V GAMS PBox IC50; for activity against gametocytes (stage V), PBox supporting information: ref Pbox supporting information
[3] = tested on: NF54-pfs16-LUC-GFP stage IV gametocytes; test: Plasmodium falciparum late stage gametocyte (LSG) image-based assay; format: cell-based; details: for IC50: Plasmodium falciparum
[4] = tested on: HepG2; details: read-out: HepG2 PBox CC50 µM, cited from earlier work
[5] = tested on: P. falciparum ABS; details: cited from earlier work; for EC50: ChEMBL Data
[6] = tested on: liver stage; details: cited from earlier work
[7] = tested on: Plasmodium falciparum 3D7 asexual blood stage; test: microbe, parasite or virus in culture
[8] = tested on: HEK293 cells; test: HEK293 resazurin cell cytotoxicity assay; details: Homo sapiens; for inhibition at 20 µM: HEK293, read-out: HEK % Inhibition 20uM/IC50 Discovery Biology; for IC50: HEK293, read-out: HEK % Inhibition 20uM/IC50 Discovery Biology (IA)
[9] = ref Pathogen Box supporting information
[10] = HepG2 CC50, ref Pathogen Box supporting information
[11] = NITD, read-out: NITD (ref 94) EC50
[12] = TCMDC, read-out: TCMDC (ref 93) EX50
[13] = Pf 3D7, ref Pathogen Box supporting information, read-out: Pf 3D7 Pbox IC50
[14] = liver stage, ref Pathogen Box supporting information, read-out: LIVER STAGE Pbox IC50
[15] = 3D7, read-out: Pf 3D7 Discovery Biology IC50 µM, P. falciparum 3D7 asexual blood stage, Discovery Biology
[16] = NF54, read-out: Pf Stage IV GAMS Discovery Biology IC50 µM, stage IV gametocytes, Discovery Biology
[17] = ref Pbox supporting information
[18] = read-out: T b.brucei Discovery Biology IC50
[19] = ref PBox supporting information
[20] = 3D7, read-out: Pf 3D7 Discovery Biology IC50 µM, P. falciparum 3D7 asexual blood stage
[21] = NF54, read-out: Pf Stage IV GAMS Discovery Biology IC50 µM, stage IV gametocytes
[22] = P. falciparum 3D7, ref PBox supporting information, read-out: Pf 3D7 Pbox IC50

SMILES: CN(C)c1cc(NC(=O)Nc2ccccc2)c2ccccc2n1 [MMV006901]
- IC50 ([1]; PBox compounds, read-out: IC50 T. brucei brucei (Discovery Biology)): 3360 nM
- IC50 [2, 9]: 3130 nM
- activity in the Discovery Biology stage IV gametocyte (LSG) assay [3]: only moderately active
- CC50 [4, 10]: > 10 µM
- EC50 [5, 11]: 150 nM
- EC50 [5, 12]: 410 nM
- IC50 [5, 13]: 600 nM
- IC50 [6, 14]: > 10000 nM

SMILES: COc1ccc(-c2cnc3ccc(NCc4ccc(S(N)(=O)=O)cc4)nn23)cn1 [MMV010545]
- IC50 [2, 9]: 1030 nM
- IC50 [7, 15]: 0.58 µM
- IC50 [3, 16]: 1.17 µM
- CC50 [4, 10]: > 10 µM
- EC50 [5, 12]: 870 nM
- IC50 [5, 13]: 490 nM
- IC50 [6, 14]: 6800 nM

SMILES: Cc1cc(Nc2ccc(C(F)(F)F)cc2)n2ccnc2n1 [MMV011229]
- activity against gametocytes (stage V), PBox supporting information [2]: ktba
- activity in the Discovery Biology stage IV gametocyte (LSG) assay [3]: did not find this compound to be active
- IC50 ([5]; ref Pbox supporting information, read-out: ABS activity, PBox supporting information): 380 nM
- activity against liver stage, PBox supporting information [6, 17]: ktba

SMILES: Cc1ccc(NC(=O)c2nc[nH]c2C(=O)Nc2nc3ccccc3[nH]2)c(C)c1 [MMV011903]
- IC50 [2, 9]: > 8300 nM
- CC50 [4, 10]: > 10 µM
- EC50 [5, 11]: 730 nM
- IC50 [5, 13]: 360 nM
- IC50 [6, 14]: > 10000 nM

SMILES: Cc1ccc2c(c1C)NC(=O)C21NN=C(c2ccccc2)S1 (stereo not drawn) [MMV019189]
- IC50 [1, 18]: 4680 nM
- IC50 [2, 9]: 900 nM
- IC50 [7, 15]: 2.28 µM
- IC50 [3, 16]: 1.97 µM
- CC50 [4, 10]: > 7.5 µM
- EC50 [5, 12]: 750 nM
- IC50 [5, 13]: 1130 nM
- IC50 [6, 14]: 880 nM

SMILES: CCN(CC)S(=O)(=O)c1ccc(Cl)c(C(=O)Nc2ccc3nc(C)sc3c2)c1 [MMV019721]
- IC50 [2, 9]: 3910 nM
- IC50 [7, 15]: 0.78 µM
- IC50 [3, 16]: 0.79 µM
- CC50 [4, 10]: > 10 µM
- EC50 [5, 12]: 800 nM
- IC50 [5, 13]: 500 nM
- IC50 [6, 14]: 1310 nM

SMILES: COc1cccc(CC(=O)N2CCC(n3c(C)nc4ccc(F)cc43)CC2)c1 [MMV020081]
- activity against gametocytes (stage V), PBox supporting information [2]: demonstrate activity
- IC50 [2, 9]: 310 nM
- IC50 [7, 15]: 0.21 µM
- activity in the Discovery Biology stage IV gametocyte (LSG) assay [3]: demonstrate activity
- IC50 [3, 16]: 0.68 µM
- EC50 [5, 12]: 910 nM
- IC50 [5, 13]: 240 nM

SMILES: Nc1nccc2ccc(-c3ccc4nccn4c3)cc12 [MMV023233]
- IC50 [1, 18]: 3290 nM
- activity against gametocytes (stage V), PBox supporting information [2]: demonstrate activity
- IC50 [2, 9]: 400 nM
- inhibition at 20 µM [8]: 74%
- IC50 [7, 15]: 0.11 µM
- activity in the Discovery Biology stage IV gametocyte (LSG) assay [3]: demonstrate activity
- IC50 [3, 16]: 3.08 µM
- EC50 [5, 12]: 100 nM
- IC50 [5, 13]: 160 nM

SMILES: NS(=O)(=O)c1cccc(-c2ccc3ncc(N4CCOCC4)nc3c2)c1 [MMV023860]
- IC50 [2, 9]: 1330 nM
- inhibition at 20 µM [8]: 40%
- IC50 [7, 15]: 0.89 µM
- IC50 [3, 16]: 2.13 µM
- CC50 [4, 10]: > 10 µM
- EC50 [5, 12]: 990 nM
- IC50 [5, 13]: 1500 nM
- IC50 [6, 14]: 1820 nM

SMILES: COc1ccc(-c2cnc3ccc(N4CCCC4)nn23)cc1OC [MMV023985]
- IC50 [2, 9]: 410 nM
- IC50 [7, 15]: 1.99 µM
- IC50 [3, 16]: 5.83 µM
- CC50 [4, 10]: > 10 µM
- EC50 [5, 12]: 770 nM
- IC50 [5, 13]: 700 nM
- IC50 [6, 14]: 630 nM

SMILES: CCn1ncc2c(NC3CCOCC3)c(CNC(=O)c3ccnn3C)c(C)nc21 [MMV026356]
- IC50 [2, 19]: 240 nM
- IC50 [8]: > 20000 nM
- IC50 [7, 20]: 0.27 µM
- IC50 [3, 21]: 0.74 µM
- CC50 [4, 19]: > 10 µM
- EC50 ([5]; P. falciparum, read-out: TCMDC (ref 93) EX50): 530 nM
- IC50 [5, 22]: 280 nM
- IC50 [6, 17]: 1600 nM

SMILES: Cc1cc(C)nc(-n2nc(C)cc2Nc2ccccc2)n1 [MMV062221]
- activity against gametocytes (stage V), PBox supporting information [2]: demonstrate activity
- IC50 [2, 19]: 220 nM
- IC50 [8]: > 20000 nM
- activity in the Discovery Biology stage IV gametocyte (LSG) assay [3]: demonstrate activity
- IC50 [3, 21]: 0.57 µM
- IC50 [5, 22]: > 2000 nM

SMILES: N#Cc1ccc(-c2cnc(N)c(-c3ccc(C(N)=O)cc3)n2)cc1 [MMV085499]
- IC50 [2, 19]: 140 nM
- IC50 [8]: > 20000 nM
- IC50 [7, 20]: 0.19 µM
- IC50 [3, 21]: 0.55 µM
- CC50 [4, 19]: > 10 µM
- EC50 ([5]; P. falciparum, read-out: NITD (ref 94) EC50): 60 nM
- IC50 [5, 22]: 95 nM
- IC50 [6, 17]: 280 nM

SMILES: c1ccc(-c2cc(N3CCCCC3)c3ccccc3n2)nc1 [MMV560185]
- activity against gametocytes (stage V), PBox supporting information [2]: demonstrate activity
- IC50 [2, 19]: 510 nM
- IC50 [8]: > 20000 nM
- activity in the Discovery Biology stage IV gametocyte (LSG) assay [3]: demonstrate activity
- IC50 [3, 21]: 0.71 µM
- CC50 [4, 19]: > 10 µM
- IC50 [5, 22]: > 2000 nM
- IC50 [6, 17]: 9700 nM

SMILES: O=C(NCCN1CCCC1)c1cc(NCCN2CCOCC2)nc2ccc(Cl)cc12 [MMV634140]
- PF stage V GAMS PBox IC50 µM [2, 19]: KTBA
- IC50 [8]: > 20000 nM
- IC50 [7, 20]: 0.09 µM
- IC50 [3, 21]: 0.39 µM
- IC50 [5, 22]: 100 nM
- LIVER STAGE Pbox IC50 µM [6, 17]: KTBA

SMILES: O=C(NCCN1CCCC1)c1cc(NCCCCN2CCC(F)(F)CC2)nc2ccc(Cl)cc12 [MMV667494]
- PF stage V GAMS PBox IC50 µM [2, 19]: KTBA
- IC50 [8]: > 20000 nM
- IC50 ([7]; 3D7, read-out: Pf 3D7 Discovery Biology IC50, P. falciparum 3D7 asexual blood stage, nM): < 0.01 µM
- IC50 [3, 21]: 0.12 µM
- IC50 [5, 22]: 7 nM
- LIVER STAGE Pbox IC50 µM [6, 17]: KTBA

SMILES: O=C(Nc1nc(-c2ccccn2)cs1)C1CC1c1ccccc1F (stereo not drawn) [MMV1028806]
- activity against gametocytes (stage V), PBox supporting information [2]: demonstrate activity
- IC50 [2, 19]: 520 nM
- IC50 [8]: > 20000 nM
- activity in the Discovery Biology stage IV gametocyte (LSG) assay [3]: demonstrate activity
- IC50 [3, 21]: 0.42 µM
- IC50 [5, 22]: > 2000 nM

SMILES: CCCn1c(NC(=O)c2ccc3ccccc3n2)nc2ccccc21 [MMV1030799]
- activity against gametocytes (stage V), PBox supporting information [2]: demonstrate activity
- IC50 [2, 19]: 560 nM
- IC50 [8]: > 20000 nM
- IC50 [7, 20]: 2.59 µM
- activity in the Discovery Biology stage IV gametocyte (LSG) assay [3]: demonstrate activity
- IC50 [3, 21]: 2.5 µM
- IC50 [5, 22]: > 2000 nM

SMILES: Cc1ccc(-c2nc(CN(Cc3ccccn3)C(C)C)cs2)o1 [MMV1088520]
- IC50 [2, 19]: 450 nM
- inhibition at 20 µM [8]: 79%
- IC50 [3, 21]: 0.67 µM
- IC50 [5, 22]: > 2000 nM
